Reference: patent publication US20100120690A1, “Polypeptides Having Antimicrobial Activity and Polynucleotides Encoding Same” (Novozymes Adenium Biotech A/S, priority 2005, published 2010)

Columns and labels:
[1] = system: panel of 6 different strains of Staphylococcus aureus; assay: Average MIC, NCCLS/CLSI guidelines using caMHB (Example 6); format: cell-based; conditions: average over 6 S. aureus strains, duplicate; MIC above 32 counted as 64; read after 18-24 hours at 37° C.
Protocol: A large number of antimicrobial peptides of the invention were tested against a panel of 6 different strains of Staphylococcus aureus listed below:
Staphylococcus aureus, ATCC29213, MSSA, NCCLS reference strain; Staphylococcus aureus, ATCC25923, MSSA, NCCLS reference strain; Staphylococcus aureus, ATCC29737, MSSA; Staphylococcus aureus, E33235, MSSA; Staphylococcus aureus, 698-01, MRSA ST5, Str, Kan, Oxa; Staphylococcus aureus, 566-03, MRSA ST80, Oxa, Tet, Fus, Kan.
The staphylococci were exposed to the following peptide concentrations: 32; 16; 8; 4; 2; 1; 0.5; 0.25; 0.13; […]; and 0.03 microgram/mL. All peptides were purified, HPLC quantified and the concentrated peptides (>160 micrograms/mL) were diluted to 160 micrograms/mL in peptide dilution buffer (0.1% BSA, 0.01% Acetic Acid).
The MIC determination was done essentially as described by NCCLS/CLSI guidelines using caMHB. The MICs were read after 18-24 hours of 37° C. incubations and recorded along with the CFU in the table below.
A total number of 95 antimicrobial peptides of the invention were evaluated in duplicate against the 6 bacterial strains described above.
In the majority of the double determinations (93%), the MIC varied <2 fold. An average MIC is tabulated below. If the MIC was above 32 micrograms/mL, a value of 64 was used to calculate the average.

[2] = system: Staphylococcus carnosus ATCC51365; assay: Yeast screening assay: radial diffusion assay of yeast supernatants; format: cell-based; set-up: key: An activity of 3 is better than Plectasin; An activity of 2 corresponds to the activity of Plectasin; 1 is worse than Plectasin; conditions: yeast supernatant, clearing zone in radial diffusion assay
Outline: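 Supernatants from S. cerevisiae expressing plectasin variants, grown 3 days at 30 °C in galactose medium, were applied to agarose containing 5×10^5 cfu/mL S. carnosus. Plates were incubated 3 h at 37 °C, overlaid, left overnight and MTT-stained. Clearing zones were scored as 2 = plectasin-like, 3 = better, 1 = worse.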

Substance	Average MIC [1] [micrograms/mL]	Activity (antimicrobial activity relative to the activity of plectasin) [2]
D11G + N17I: antimicrobial peptide of the invention, Plectasin variant (GFGCNGPWDEGDMQCHIHCKSIKGYKGGYCAKGGFVCKCY)	16	–
GFGCNGPWDEYDMQCHNHCKSIKGYKGGYCAKGGFVCKCY [Mutation D11Y]	–	3
GFGCNGPWDGDDMQCHNHCKSIKGYKGGYCAKGGFVCKCY [Mutation E10G]	–	3
GFGCNGPWDGDDMRCHNHCKSIKGYKGGYCAKGGFVCKCY [E10G + Q14R]	–	3
GFGCNGPWDLDDMQCHNHCKSIKGYKGGYCAKGGFVCKCY [Mutation E10L]	–	2
GFGCNGPWDQDDMQCHNHCKSIKGYKGGYCAKGGFVCKCY [Mutation E10Q]	–	2
GFGCNGPWDSDDMQCHNHCKSIKGYKGGYCAKGGFVCKCY [Mutation E10S]	–	3
GFGCNGPWFEDDMQCHNHCKSIKGYKGGYCAKGGFVCKCY [Mutation D9F]	–	3
GFGCNGPWHEDDMQCHNHCKSIKGYKGGYCAKGGFVCKCY [Mutation D9H]	–	3
GFGCNGPWIEDDMQCHNHCKSIKGYKGGYCAKGGFVCKCY [Mutation D9I]	–	2
GFGCNGPWLEDDMQCHNHCKSIKGYKGGYCAKGGFVCKCY [Mutation D9L]	–	3
GFGCNGPWLEDDMQCHNHCKSIKGYNGGYCAKGGFVCKCY [D9L + K26N]	–	2
GFGCNGPWMEDDMQCHNHCKSIKGYKGGYCAKGGFVCKCY [Mutation D9M]	–	3
GFGCNGPWNEDDMQCHNHCKSIKGYKGGYCAKGGFVCKCY [Mutation D9N]	–	3
GFGCNGPWPEDDMQCHNHCKSIKGYKGGYCAKGGFVCKCY [Mutation D9P]	–	3
GFGCNGPWQEDDMQCHNHCKSIKGYKGGYCAKGGFVCKCY [Mutation D9Q]	–	3
GFGCNGPWREDDMQCHNHCKSIKGYKGGYCAKGGFVCKCY [Mutation D9R]	–	2
GFGCNGPWTEDDMQCHNHCKSIKGYKGGYCAKGGFVCKCY [Mutation D9T]	–	3
GFGCNGPWWEDDMQCHNHCKSIKGYKGGYCAKGGFVCKCY [Mutation D9W]	–	2
GFGCNGPWYEDDMQCHNHCKSIKGYKGGYCAKGGFVCKCY [Mutation D9Y]	–	3
GFGCNGRWDEDDMQCHNHCKSIKGYKGGYCAKGGFVCKCY [Mutation P7R]	–	3
GFGCNGVWDEDDMQCHNHCKSIKGYKGGYCAKGGFVCKCY [Mutation P7V]	–	2
GFGCNKPWDEDDMQCHNHCKSIKGYKGGYCAKGGFVCKCY [Mutation G6K]	–	2
GFGCNRPWDEDDMQCHNHCKSIKGYKGGYCAKGGFVCKCY [Mutation G6R]	–	2

Substance	Average MIC [1] [micrograms/mL]	Activity (antimicrobial activity relative to the activity of plectasin) [2]
GFGCQGPWDEDDMQCHNHCKSIKGYKGGYCAKGGFVCKCY [Mutation N5Q]	–	3
GFGCVGPWDEDDMQCHNHCKSIKGYKGGYCAKGGFVCKCY [Mutation N5V]	–	3
GIGCNGPWDEDDMQCHNHCKSIKGYKGGYCAKGGFVCKCY [Mutation F2I]	–	2
GLGCNGPWDEDDMQCHNHCKSIKGYKGGYCAKGGFVCKCY [Mutation F2L]	–	2
GWGCNGPWDEDDMQCHNHCKSIKGYKGGYCAKGGFVCKCY [Mutation F2W]	–	2
K26C + Y40YRCG: antimicrobial peptide of the invention, Plectasin variant (GFGCNGPWDEDDMQCHNHCKSIKGYCGGYCAKGGFVCKCYRCG)	11	–
M13A + Q14K + K26R: antimicrobial peptide of the invention, Plectasin variant (GFGCNGPWDEDDAKCHNHCKSIKGYRGGYCAKGGFVCKCY)	9	–
M13R + Q14K + K26R: antimicrobial peptide of the invention, Plectasin variant (GFGCNGPWDEDDRKCHNHCKSIKGYRGGYCAKGGFVCKCY)	5	–
M13S + Q14K + K26R: antimicrobial peptide of the invention, Plectasin variant (GFGCNGPWDEDDSKCHNHCKSIKGYRGGYCAKGGFVCKCY; Synthetic antimicrobial polypeptide)	15	–
N5D + D9S + Q14R: antimicrobial peptide of the invention, Plectasin variant (GFGCDGPWSEDDMRCHNHCKSIKGYKGGYCAKGGFVCKCY)	16	–
N5G + D9A + Q14S + K23T + A31T: antimicrobial peptide of the invention, Plectasin variant (GFGCGGPWAEDDMSCHNHCKSITGYKGGYCTKGGFVCKCY)	14	–
N5G + M13W + N17S: antimicrobial peptide of the invention, Plectasin variant (GFGCGGPWDEDDWQCHSHCKSIKGYKGGYCAKGGFVCKCY)	10	–
N5G + M13W: antimicrobial peptide of the invention, Plectasin variant (GFGCGGPWDEDDWQCHNHCKSIKGYKGGYCAKGGFVCKCY)	9	–
N5H + M13E + N17E: antimicrobial peptide of the invention, Plectasin variant (GFGCHGPWDEDDEQCHEHCKSIKGYKGGYCAKGGFVCKCY)	12	–
N5K + M13L: antimicrobial peptide of the invention, Plectasin variant (GFGCKGPWDEDDLQCHNHCKSIKGYKGGYCAKGGFVCKCY)	9	–
N5S + M13V + N17A: antimicrobial peptide of the invention, Plectasin variant (GFGCSGPWDEDDVQCHAHCKSIKGYKGGYCAKGGFVCKCY)	18	–
N5S + M13V + N17T: antimicrobial peptide of the invention, Plectasin variant (GFGCSGPWDEDDVQCHTHCKSIKGYKGGYCAKGGFVCKCY)	16	–
N17A: antimicrobial peptide of the invention, Plectasin variant (GFGCNGPWDEDDMQCHAHCKSIKGYKGGYCAKGGFVCKCY) [Mutation N17A]	15	–
N17F: antimicrobial peptide of the invention, Plectasin variant (GFGCNGPWDEDDMQCHFHCKSIKGYKGGYCAKGGFVCKCY) [Mutation N17F]	12	–
N17K + K32R: antimicrobial peptide of the invention, Plectasin variant (GFGCNGPWDEDDMQCHKHCKSIKGYKGGYCARGGFVCKCY)	7	–
N17K: antimicrobial peptide of the invention, Plectasin variant (GFGCNGPWDEDDMQCHKHCKSIKGYKGGYCAKGGFVCKCY) [Mutation N17K]	11	–
N17R + Y25R: antimicrobial peptide of the invention, Plectasin variant (GFGCNGPWDEDDMQCHRHCKSIKGRKGGYCAKGGFVCKCY)	18	–
N17S: antimicrobial peptide of the invention, Plectasin variant (GFGCNGPWDEDDMQCHSHCKSIKGYKGGYCAKGGFVCKCY) [Mutation N17S]	14	–
